In ChEMBL document CHEMBL1201862, “PubChem BioAssay data set” (2004):
The source made the active and inactive calls.

Test system: not listed separately
Assay: viability of uninfected HEp-2 cells – cell-based, HTS, cytotoxicity control for RSV inhibitor project, dose response (AID 2410)
Format: functional
Details: human respiratory syncytial virus

Structure (SMILES) | CC50
Cc1nn(C)c(C(=O)Nc2cccc(Nc3ccccc3)c2)c1[N+](=O)[O-] | 23.1 µM (active)
CCCc1nc(NCCO)c(C#N)c2c1CCCC2 | 15.7 µM (active)
Cc1nn2c(-c3cccnc3)ccnc2c1-c1ccccc1 | 41.2 µM (active)
CCOC1OC(O)=C(Cl)/C1=N\c1cc(C)ccc1C (stereo not given) | 29.2 µM (active)
O=C1c2ccccc2C(=O)N1CCCCN(C(=O)c1ccc(Cl)s1)c1ccc(Cl)cc1 | 24 µM (active)

Test system: H9c2;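 further: confirmatory concentration-response retest of ultra-high-throughput screening hits for modulation of myocardial damage; cell death induced by hydrogen peroxide oxidative stress; compound pretreatment for 60 min then peroxide exposure for 2 h; potency is for protecting the cells against peroxide damage rather than for killing them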
Assay: cells
Format: functional, cell-based
Details: Rattus norvegicus, H9c2, Myocardium

Structure (SMILES) | IC50
Cn1c2c(c(=O)n(C)c1=O)C(c1cccc([N+](=O)[O-])c1)Nc1ccccc1O2 (stereo not given) | > 79 µM (inactive)
CN(C)C(=O)/C=C\c1cn(-c2ccccc2)nc1-c1ccc2c(c1)OCCO2 | > 79 µM (inactive)
CCn1cc(C(=O)Nc2cccc(NC(C)=O)c2)c2cc(OC)c(OC)cc2c1=O | 20.3 µM (active)
CCN(CCO)c1ncnc2c1sc1nc(C(C)C)c3c(c12)CC(C)(C)OC3 | > 79 µM (inactive)
Cc1noc(C)c1COC(=O)COc1ccc2c(C)cc(=O)oc2c1 | 13.5 µM (active)
NC(=O)c1nsc(C(=O)N(c2ccccc2)C(C(=O)NC2CCCC2)c2ccc3ncccc3c2)c1N (stereo not given) | > 79 µM (inactive)
CCOC(=O)C1=C(COC(=O)/C=C/c2ccc(F)cc2)NC(=O)NC1C (stereo not given) | > 79 µM (inactive)
COc1ccc(-c2cc(NC=O)c3ncc(-c4ccc(C(C)=O)cc4)n3c2)cn1 | > 79 µM (inactive)
O=C1NC(=O)c2c(Br)c(Br)c(Br)c(Br)c21 | > 79 µM (inactive)
CC(OC(=O)Cn1[nH]c(=O)c2ccccc2c1=O)C(=O)Nc1ccccc1[N+](=O)[O-] (stereo not given) | > 79 µM (inactive)
CCN(CC(=O)Nc1cc(Cl)ccc1C)C(=O)CCc1nc(O)c2ccccc2n1 | > 79 µM (inactive)
COc1ccc(NC(=O)c2cc(-c3ccc(OC)c(OC)c3)nc3ccccc23)c(OC)c1 | > 79 µM (inactive)
COc1cccc(/C=N/NC(=O)c2oc3nc(-c4ccccc4)cc(-c4ccco4)c3c2N)c1 | > 79 µM (inactive)
COc1cc(-c2cnc3c(NC=O)cc(-c4ccsc4)cn23)cc(OC)c1OC | > 79 µM (inactive)
Cc1ccc(Nc2nc(N)nc(O)c2N=O)cc1 | 12.1 µM (active)

Target: Paired box protein Pax-8 (Homo sapiens, UniProt Q06710)
Sequence (Q06710 whole entry): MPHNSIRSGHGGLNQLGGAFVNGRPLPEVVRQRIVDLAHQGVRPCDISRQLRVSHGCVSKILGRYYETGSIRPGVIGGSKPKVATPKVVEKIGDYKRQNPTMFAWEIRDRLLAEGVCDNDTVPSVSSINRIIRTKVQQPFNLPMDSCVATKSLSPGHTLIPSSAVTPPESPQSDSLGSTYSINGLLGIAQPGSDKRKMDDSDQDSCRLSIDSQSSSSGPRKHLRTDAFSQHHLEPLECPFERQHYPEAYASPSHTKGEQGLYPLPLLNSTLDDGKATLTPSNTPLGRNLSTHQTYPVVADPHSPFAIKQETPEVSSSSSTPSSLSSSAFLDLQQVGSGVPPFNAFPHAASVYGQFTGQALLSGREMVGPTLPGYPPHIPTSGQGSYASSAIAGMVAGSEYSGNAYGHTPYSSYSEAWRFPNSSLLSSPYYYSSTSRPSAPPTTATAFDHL
Assay: PAX8 transcriptional activity inhibition in RMG-I – RMG-I cells, luciferase, cherry-pick, dose response (AID 687027);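 further: luciferase reporter driven by Pax8 target thyroperoxidase promoter measured by SteadyGlo luminescence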
Format: functional, cell-based
Details: not given

Structure (SMILES) | AC50
COc1cc2c(c(OC)c1OC)-c1ccc(SC)c(=O)cc1C(NC(=O)C(F)(F)F)CC2 (stereo not given) | < 260 nM (active)
COc1cccc(C(c2nnnn2Cc2ccccc2)N2CCC(n3c(O)nc4ccccc43)CC2)c1OC (stereo not given) | 5500 nM (active)

Target: T1, Heat shock factor protein 1 (Mus musculus, UniProt P38532)
T1 sequence (P38532 whole entry): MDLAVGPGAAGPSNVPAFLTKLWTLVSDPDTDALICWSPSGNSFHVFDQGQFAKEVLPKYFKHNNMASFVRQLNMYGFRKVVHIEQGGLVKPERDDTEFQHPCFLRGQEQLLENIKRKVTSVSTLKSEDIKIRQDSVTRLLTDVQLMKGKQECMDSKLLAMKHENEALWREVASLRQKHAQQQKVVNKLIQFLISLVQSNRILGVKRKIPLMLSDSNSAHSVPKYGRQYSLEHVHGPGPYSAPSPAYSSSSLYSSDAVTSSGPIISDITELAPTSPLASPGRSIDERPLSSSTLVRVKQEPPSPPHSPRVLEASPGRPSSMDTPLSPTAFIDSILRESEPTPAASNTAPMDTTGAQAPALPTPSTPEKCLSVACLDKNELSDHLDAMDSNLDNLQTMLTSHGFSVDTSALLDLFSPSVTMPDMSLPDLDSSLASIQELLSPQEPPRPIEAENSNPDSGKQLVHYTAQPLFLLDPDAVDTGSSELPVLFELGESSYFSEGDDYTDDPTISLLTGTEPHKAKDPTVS
Assay: decrease of HSF1-responsive luciferase luminescence – cell-based, NIH3T3, dose retest, confirmation (AID 2382);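 further: NIH3T3 fibroblasts with HSF1-driven luciferase reporter stressed by proteasome inhibitor MG132; luminescence from HSF1-driven luciferase expression after 8 hours of MG132 stress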
Format: functional
Details: not given

Structure (SMILES) | EC50
COc1cc2c(cc1OC)C(C(=O)NC1CC1)C1c3ccccc3CCN1C2=O (stereo not given) | > 195 µM (not active)
O=C(CSc1nccn1Cc1ccco1)Nc1cccc(F)c1 | > 195 µM (not active)
CCOC(=O)c1ccc(NC(=S)Nc2ccccc2N)cc1 | > 195 µM (not active)
CCc1ccccc1-n1c(SCC(=O)Nc2ccc3c(c2)OCCO3)nc2nncc-2c1O | 3.04 µM (active)
COc1ccc(CCNC(=O)c2ccc(N(C)S(=O)(=O)c3ccc(C)cc3)cc2)cc1 | > 195 µM (not active)
O=C(Nc1cccc(F)c1)c1cc(-c2ccco2)nc2ccccc12 | > 195 µM (not active)
O=C(NCC1CCCN(C2Cc3ccccc3C2)C1)c1cccs1 (stereo not given) | > 195 µM (not active)
CCOC(=O)C1=C(CN2CCN(C(=O)c3ccco3)CC2)NC(=O)NC1c1ccc(OC)cc1 (stereo not given) | > 195 µM (not active)

Target: T2, Protein RecA (Mycobacterium tuberculosis, UniProt P9WHJ3)
T2 sequence (P9WHJ3 whole entry): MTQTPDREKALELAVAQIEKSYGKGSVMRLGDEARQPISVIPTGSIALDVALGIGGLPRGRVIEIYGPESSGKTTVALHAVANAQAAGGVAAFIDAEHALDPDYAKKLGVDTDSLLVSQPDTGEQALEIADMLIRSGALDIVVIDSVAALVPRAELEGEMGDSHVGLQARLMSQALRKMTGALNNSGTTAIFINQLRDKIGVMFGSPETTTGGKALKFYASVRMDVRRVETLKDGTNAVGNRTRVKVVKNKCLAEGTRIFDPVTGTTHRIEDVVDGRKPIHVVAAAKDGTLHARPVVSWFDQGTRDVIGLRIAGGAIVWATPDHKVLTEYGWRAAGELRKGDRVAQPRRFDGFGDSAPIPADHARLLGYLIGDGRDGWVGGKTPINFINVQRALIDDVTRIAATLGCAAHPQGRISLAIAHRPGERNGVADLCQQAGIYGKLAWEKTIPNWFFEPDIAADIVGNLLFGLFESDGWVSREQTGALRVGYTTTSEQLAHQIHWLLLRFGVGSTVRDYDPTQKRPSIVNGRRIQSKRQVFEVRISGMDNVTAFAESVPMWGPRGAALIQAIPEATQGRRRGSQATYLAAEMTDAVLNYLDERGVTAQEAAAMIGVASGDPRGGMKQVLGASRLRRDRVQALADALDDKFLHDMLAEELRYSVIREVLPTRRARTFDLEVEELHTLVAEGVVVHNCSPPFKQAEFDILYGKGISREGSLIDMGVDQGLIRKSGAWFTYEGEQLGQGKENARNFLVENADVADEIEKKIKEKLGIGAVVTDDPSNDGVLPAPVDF
Assay: Fluorescence Cell-Free Homogeneous Dose Retest to Identify Inhibitors of RecA-Intein Splicing Activity. [Related pubchem assays (depositor defined):AID2097, AID2223, AID489010, AID492950]
Format: functional
Details: not given

Structure (SMILES) | EC50
O=C(Nc1cccc(F)c1)N1CCC(c2ccccc2)CC1 | > 380 µM (inactive)
FC(F)(F)c1ccc2c(c1)N(CCCN1CCN(CCCl)CC1)c1ccccc1S2 | 3.6 µM (active)
Clc1ccc(-c2nnc(Sc3nc4ccccc4o3)c3ccccc23)cc1 | 0.405 µM (active)

Target: T3, Streptokinase A (Streptococcus pyogenes serotype M1, UniProt P10520)
T3 sequence (P10520 whole entry): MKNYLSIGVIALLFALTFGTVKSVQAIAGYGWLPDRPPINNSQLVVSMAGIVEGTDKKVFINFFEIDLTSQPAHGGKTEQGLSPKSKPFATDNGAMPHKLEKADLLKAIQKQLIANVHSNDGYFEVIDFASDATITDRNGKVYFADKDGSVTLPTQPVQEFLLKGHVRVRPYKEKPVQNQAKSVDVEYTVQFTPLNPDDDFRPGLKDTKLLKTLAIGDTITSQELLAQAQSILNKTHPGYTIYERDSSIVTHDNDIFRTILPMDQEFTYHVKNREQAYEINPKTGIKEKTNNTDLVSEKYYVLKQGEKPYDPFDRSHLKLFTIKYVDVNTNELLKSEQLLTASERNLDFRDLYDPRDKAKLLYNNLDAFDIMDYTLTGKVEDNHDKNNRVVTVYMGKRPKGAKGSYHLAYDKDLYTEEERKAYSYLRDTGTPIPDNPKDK
Assay: viability-normalized secreted streptokinase activity reduction – plasminogen activation absorbance, OD405, dose response (AID 1914);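 further: secreted streptokinase activity via plasminogen activation per viability signal from cell pellet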
Format: functional, Streptococcus pyogenes M1 GAS
Details: not given

Structure (SMILES) | EC50
CCCc1cc(=O)n2nc(C)c(-c3ccc(Cl)cc3)c2[nH]1 | > 150 µM (not active)

Test system: Streptococcus
Assay: GAS UMAA2166 growth inhibition – luminescence, BacTiterGlo, counter-screen for streptokinase expression inhibitor project, dose response (AID 1915);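 further: potency for reduction of bacterial viability or growth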
Format: functional, organism-based
Details: not given

Structure (SMILES) | EC50
CCCc1cc(=O)n2nc(C)c(-c3ccc(Cl)cc3)c2[nH]1 | 11.3 µM (active)

Test system: not listed separately
Assay: microbe, parasite or virus in culture
Format: functional
Details: Mycobacterium tuberculosis

Structure (SMILES) | CC50
C=CCNC(=O)c1onc(CCl)c1C(=O)OC | > 40 µM (active)
CC1=NN(C(N)=S)C(=O)C1N=Nc1ccc(C)c(Br)c1 (stereo not given) | > 40 µM (active)
CCCc1cc(=O)n2nc(C)c(-c3ccc(Cl)cc3)c2[nH]1 | 39.5 µM (active)
CCCOc1cccc(-c2nn(-c3ccccc3)cc2/C=C(\C#N)C(=O)NCCCn2ccnc2)c1 | > 40 µM (active)
CCCCCCCNC(=O)c1ccc(N2CCC3(CC2)OCCO3)c([N+](=O)[O-])c1 | > 40 µM (active)
CCN(CC)C(=O)[C@H]1CC(CC(=O)NCC23C[C@H]4C[C@@H](C2)C[C@@H](C3)C4)C(=O)N2CCc3c([nH]c4ccccc34)[C@]12C (stereo not given in full) | 30.8 µM (active)

Target: T4, Replicative DNA helicase DnaB (Mycobacterium tuberculosis, UniProt P9WMR3)
T4 sequence (P9WMR3 whole entry): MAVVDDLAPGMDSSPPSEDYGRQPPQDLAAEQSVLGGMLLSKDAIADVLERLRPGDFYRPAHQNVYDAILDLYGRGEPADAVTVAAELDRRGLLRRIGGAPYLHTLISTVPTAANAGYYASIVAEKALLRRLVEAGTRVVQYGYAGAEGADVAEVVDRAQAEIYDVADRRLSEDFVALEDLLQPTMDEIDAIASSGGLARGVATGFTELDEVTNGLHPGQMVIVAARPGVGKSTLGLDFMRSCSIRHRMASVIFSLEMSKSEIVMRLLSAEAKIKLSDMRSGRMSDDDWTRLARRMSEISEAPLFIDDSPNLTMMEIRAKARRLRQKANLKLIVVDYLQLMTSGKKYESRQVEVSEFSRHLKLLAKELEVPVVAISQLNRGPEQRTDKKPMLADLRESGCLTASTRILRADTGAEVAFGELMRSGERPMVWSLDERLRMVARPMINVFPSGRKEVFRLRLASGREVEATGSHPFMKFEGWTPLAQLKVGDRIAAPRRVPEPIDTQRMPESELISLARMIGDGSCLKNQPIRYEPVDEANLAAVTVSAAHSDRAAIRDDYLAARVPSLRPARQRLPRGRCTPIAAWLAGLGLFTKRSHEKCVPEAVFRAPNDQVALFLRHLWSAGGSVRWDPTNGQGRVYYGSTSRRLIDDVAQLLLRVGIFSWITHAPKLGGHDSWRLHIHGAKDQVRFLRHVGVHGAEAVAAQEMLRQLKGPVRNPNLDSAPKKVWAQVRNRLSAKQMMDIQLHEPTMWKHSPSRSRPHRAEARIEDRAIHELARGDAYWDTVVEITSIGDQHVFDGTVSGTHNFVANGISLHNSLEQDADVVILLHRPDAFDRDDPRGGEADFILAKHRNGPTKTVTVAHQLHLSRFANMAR
Assay: DnaB intein splicing inhibitors, dose response, biochemical, cell-free fluorescence (AID 449749)
Format: functional
Details: not given

Structure (SMILES) | AC50
O=C(Nc1cccc(F)c1)N1CCC(c2ccccc2)CC1 | 53.5 µM (active)
FC(F)(F)c1ccc2c(c1)N(CCCN1CCN(CCCl)CC1)c1ccccc1S2 | 9.54 µM (active)
Clc1ccc(-c2nnc(Sc3nc4ccccc4o3)c3ccccc23)cc1 | 1.58 µM (active)

Test system: Streptococcus sp. 'group A'
Assay: Streptococcus pyogenes SK(-)GAS viability under kanamycin – luminescence, BacTiterGlo, confirmation, counter-screen for streptokinase expression inhibitor project, dose response (AID 1900)
Format: functional, organism-based
Details: not given

Structure (SMILES) | EC50
CCCc1cc(=O)n2nc(C)c(-c3ccc(Cl)cc3)c2[nH]1 | 3.37 µM (active)
